Test results taken from the NIST ThermoML archive (doi:10.1021/je034177v).

Test: xn = mol fraction of the nth substance listed
Conditions: 101 kPa, Liquid; for speed of sound: Pulse-echo method; for mass density: Vibrating tube method

ClCCCCCCCl [1,6-dichlorohexane] + CCCCCCCCCCCC
Conditions	mass density [kg/m3]	speed of sound [m/s]
278.15 K, x1 = 0.0498	769.76	1355
278.15 K, x1 = 0.1003	780.41	1353.3
278.15 K, x1 = 0.1497	791.41	1352
278.15 K, x1 = 0.2527	815.84	1350.4
278.15 K, x1 = 0.4017	855.12	1350.4
278.15 K, x1 = 0.502	884.56	1351.9
278.15 K, x1 = 0.6	916.3	1355.1
278.15 K, x1 = 0.7011	952.18	1360.1
278.15 K, x1 = 0.7986	990.33	1366.8
278.15 K, x1 = 0.8998	1034.17	1376.1
278.15 K, x1 = 0.9493	1057.53	1381.5
278.15 K, x1 = 0.9691	1067.22	1383.7
278.15 K, x1 = 1	1082.7	1387.4
283.15 K, x1 = 0.0498	766.11	1335.5
283.15 K, x1 = 0.1003	776.72	1333.9
283.15 K, x1 = 0.1497	787.68	1332.7
283.15 K, x1 = 0.2527	812	1331.2
283.15 K, x1 = 0.4017	851.13	1331.4
283.15 K, x1 = 0.502	880.48	1333.3
283.15 K, x1 = 0.6	912.1	1336.7
283.15 K, x1 = 0.7011	947.86	1342
283.15 K, x1 = 0.7986	985.89	1348.9
283.15 K, x1 = 0.8998	1029.59	1358.4
283.15 K, x1 = 0.9493	1052.88	1364
283.15 K, x1 = 0.9691	1062.53	1366.2
283.15 K, x1 = 1	1077.97	1370
288.15 K, x1 = 0.0498	762.46	1315.7
288.15 K, x1 = 0.1003	773.04	1314.3
288.15 K, x1 = 0.1497	783.94	1313.2
288.15 K, x1 = 0.2527	808.17	1311.8
288.15 K, x1 = 0.4017	847.16	1312.4
288.15 K, x1 = 0.502	876.39	1314.5
288.15 K, x1 = 0.6	907.89	1318.1
288.15 K, x1 = 0.7011	943.53	1323.6
288.15 K, x1 = 0.7986	981.42	1330.7
288.15 K, x1 = 0.8998	1024.98	1340.4
288.15 K, x1 = 0.9493	1048.19	1346.1
288.15 K, x1 = 0.9691	1057.82	1348.4
288.15 K, x1 = 1	1073.22	1352.3
293.15 K, x1 = 0.0498	758.82	1296.3
293.15 K, x1 = 0.1003	769.35	1294.9
293.15 K, x1 = 0.1497	780.2	1293.9
293.15 K, x1 = 0.2527	804.33	1292.7
293.15 K, x1 = 0.4017	843.16	1293.5
293.15 K, x1 = 0.502	872.29	1295.9
293.15 K, x1 = 0.6	903.68	1299.7
293.15 K, x1 = 0.7011	939.19	1305.4
293.15 K, x1 = 0.7986	976.96	1312.8
293.15 K, x1 = 0.8998	1020.39	1322.7
293.15 K, x1 = 0.9493	1043.52	1328.4
293.15 K, x1 = 0.9691	1053.11	1330.9
293.15 K, x1 = 1	1068.47	1334.8
298.15 K, x1 = 0.0498	755.16	1276.8
298.15 K, x1 = 0.1003	765.66	1275.5
298.15 K, x1 = 0.1497	776.45	1274.6
298.15 K, x1 = 0.2527	800.48	1273.7
298.15 K, x1 = 0.4017	839.16	1274.7
298.15 K, x1 = 0.502	868.18	1277.3
298.15 K, x1 = 0.6	899.46	1281.3
298.15 K, x1 = 0.7011	934.87	1287.3
298.15 K, x1 = 0.7986	972.49	1294.8
298.15 K, x1 = 0.8998	1015.8	1304.9
298.15 K, x1 = 0.9493	1038.85	1310.8
298.15 K, x1 = 0.9691	1048.42	1313.2
298.15 K, x1 = 1	1063.74	1317.3
303.15 K, x1 = 0.0498	751.5	1257.6
303.15 K, x1 = 0.1003	761.96	1256.4
303.15 K, x1 = 0.1497	772.7	1255.5
303.15 K, x1 = 0.2527	796.64	1254.7
303.15 K, x1 = 0.4017	835.16	1256.1
303.15 K, x1 = 0.502	864.08	1258.8
303.15 K, x1 = 0.6	895.24	1263.1
303.15 K, x1 = 0.7011	930.52	1269.2
303.15 K, x1 = 0.7986	968.02	1277
303.15 K, x1 = 0.8998	1011.2	1287.3
303.15 K, x1 = 0.9493	1034.18	1293.3
303.15 K, x1 = 0.9691	1043.71	1295.8
303.15 K, x1 = 1	1059	1299.9
308.15 K, x1 = 0.0498	747.81	1238.5
308.15 K, x1 = 0.1003	758.26	1237.4
308.15 K, x1 = 0.1497	768.93	1236.6
308.15 K, x1 = 0.2527	792.76	1236
308.15 K, x1 = 0.4017	831.14	1237.6
308.15 K, x1 = 0.502	859.96	1240.5
308.15 K, x1 = 0.6	891.01	1245
308.15 K, x1 = 0.7011	926.17	1251.3
308.15 K, x1 = 0.7986	963.55	1259.3
308.15 K, x1 = 0.8998	1006.61	1269.8
308.15 K, x1 = 0.9493	1029.52	1276
308.15 K, x1 = 0.9691	1039	1278.5
308.15 K, x1 = 1	1054.25	1282.7
313.15 K, x1 = 0.0498	744.13	1219.6
313.15 K, x1 = 0.1003	754.53	1218.5
313.15 K, x1 = 0.1497	765.15	1217.9
313.15 K, x1 = 0.2527	788.89	1217.5
313.15 K, x1 = 0.4017	827.13	1219.3
313.15 K, x1 = 0.502	855.84	1222.4
313.15 K, x1 = 0.6	886.78	1227
313.15 K, x1 = 0.7011	921.82	1233.6
313.15 K, x1 = 0.7986	959.07	1241.8
313.15 K, x1 = 0.8998	1002	1252.5
313.15 K, x1 = 0.9493	1024.85	1258.8
313.15 K, x1 = 0.9691	1034.3	1261.3
313.15 K, x1 = 1	1049.5	1265.7
318.15 K, x1 = 0.0498	740.46	1200.9
318.15 K, x1 = 0.1003	750.82	1199.9
318.15 K, x1 = 0.1497	761.37	1199.3
318.15 K, x1 = 0.2527	785.03	1199
318.15 K, x1 = 0.4017	823.12	1201.2
318.15 K, x1 = 0.502	851.72	1204.4
318.15 K, x1 = 0.6	882.55	1209.2
318.15 K, x1 = 0.7011	917.48	1216
318.15 K, x1 = 0.7986	954.61	1224.3
318.15 K, x1 = 0.8998	997.44	1235.3
318.15 K, x1 = 0.9493	1020.2	1241.7
318.15 K, x1 = 0.9691	1029.61	1244.3
318.15 K, x1 = 1	1044.78	1248.7
323.15 K, x1 = 0.0498	736.76	1182.4
323.15 K, x1 = 0.1003	747.09	1181.4
323.15 K, x1 = 0.1497	757.6	1180.9
323.15 K, x1 = 0.2527	781.15	1180.8
323.15 K, x1 = 0.4017	819.09	1183.1
323.15 K, x1 = 0.502	847.59	1186.5
323.15 K, x1 = 0.6	878.32	1191.6
323.15 K, x1 = 0.7011	913.12	1198.5
323.15 K, x1 = 0.7986	950.13	1207
323.15 K, x1 = 0.8998	992.83	1218.2
323.15 K, x1 = 0.9493	1015.52	1224.7
323.15 K, x1 = 0.9691	1024.9	1227.4
323.15 K, x1 = 1	1040.03	1231.8
328.15 K, x1 = 0.0498	733.07	1163.9
328.15 K, x1 = 0.1003	743.36	1163
328.15 K, x1 = 0.1497	753.83	1162.6
328.15 K, x1 = 0.2527	777.28	1162.6
328.15 K, x1 = 0.4017	815.09	1165.2
328.15 K, x1 = 0.502	843.49	1168.8
328.15 K, x1 = 0.6	874.11	1174
328.15 K, x1 = 0.7011	908.81	1181.1
328.15 K, x1 = 0.7986	945.71	1189.9
328.15 K, x1 = 0.8998	988.3	1201.2
328.15 K, x1 = 0.9493	1010.92	1207.8
328.15 K, x1 = 0.9691	1020.27	1210.5
328.15 K, x1 = 1	1035.37	1215.1
